Measurements taken from US11866431B2, “Bicyclic compounds” (Vivace Therapeutics, Inc., priority 2018, dated 2024).

tested on: 8XTBD luciferase reporter (YAP reporter) in HEK293T cells; experiment: YAP Reporter Assay; type: cell-based; settings: Homo sapiens, HEK-293T; HEK293T cells stably transfected with 8XTBD luciferase reporter and pRLTK; 24-hr incubation; top concentration 3 μM; read-out: Firefly Luciferase IC50
Summary of the method: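 HEK293T cells stably carrying 8XTBD firefly luciferase and TK-renilla (3×10^3 cells/well) dosed 3-4 h after plating with compounds from 3 μM final, 1:3 dilution, 10 points, quadruplicates. After 24 h at 37° C, Dual-Glo readings gave IC50 and maximum inhibition reported separately for firefly and renilla.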

Q: Which IC50 does the source give for C[C@@H](NC(=O)c1ccc2c(-c3ccc(C(F)(F)F)cc3)cccc2c1)c1ncc[nH]1 [Compound 242, (R)—N-(1-(1H-imidazol-2-yl)ethyl)-5-(4-(trifluoromethyl)phenyl)-2-naphthamide] here?
A: 100 to 1000 nM

Q: For C[C@H](NC(=O)c1ccc2c(-c3ccc(C(F)(F)F)cc3)cccc2c1)c1ncc[nH]1 [Compound 243, (S)—N-(1-(1H-imidazol-2-yl)ethyl)-5-(4-(trifluoromethyl)phenyl)-2-naphthamide], which IC50 is on record?
A: 100 to 1000 nM

Q: For C[C@H](NC(=O)c1ccc2c(-c3ccc(C(F)(F)F)cc3)cccc2n1)c1ccccn1 [Compound 244, (S)—N-(1-(Pyridin-2-yl)ethyl)-5-(4-(trifluoromethyl)phenyl)quinoline-2-carboxamide], which IC50 is on record?
A: < 100 nM

Q: Which IC50 does the source give for COC[C@H](C)NC(=O)c1ccc2c(-c3ccc(C(F)(F)F)cc3)cccc2n1 [Compound 246, (S)—N-(1-Methoxypropan-2-yl)-5-(4-(trifluoromethyl)phenyl)quinoline-2-carboxamide] here?
A: 100 to 1000 nM

Q: C[C@H](CO)NC(=O)c1ccc2c(-c3ccc(C(F)(F)F)cc3)cccc2n1 [Compound 247, (R)—N-(1-Hydroxypropan-2-yl)-5-(4-(trifluoromethyl)phenyl)quinoline-2-carboxamide] was tested. Which IC50 did it give?
A: 100 to 1000 nM

Q: For CC(C)NC(=O)c1ccc2c(-c3ccc(C(F)(F)F)cc3)cccc2n1 [Compound 248, N-isopropyl-5-(4-(trifluoromethyl)phenyl)quinoline-2-carboxamide], which IC50 is on record?
A: 100 to 1000 nM

Q: O=C(NCCCCCl)c1ccc2c(-c3ccc(C(F)(F)F)cc3)cccc2c1 [Compound 249, N-(4-chlorobutyl)-5-(4-(trifluoromethyl)phenyl)-2-naphthamide] was tested. Which IC50 did it give?
A: 100 to 1000 nM

Q: How did the IC50 turn out when O=C(NC1(c2ccccn2)CC1)c1ccc2c(-c3ccc(C(F)(F)F)cc3)cccc2c1 [Compound 250, N-(1-(pyridin-2-yl)cyclopropyl)-5-(4-(trifluoromethyl)phenyl)-2-naphthamide] was run?
A: 100 to 1000 nM

Q: For C[C@H](NC(=O)c1ccc2c(-c3ccc(C(F)(F)F)cc3)cccc2c1)C1CCC1 [Compound 251, (S)—N-(1-cyclobutylethyl)-5-(4-(trifluoromethyl)phenyl)-2-naphthamide], which IC50 is on record?
A: 100 to 1000 nM

Q: Which IC50 does the source give for C[C@@H](NC(=O)c1ccc2c(-c3ccc(C(F)(F)F)cc3)cccc2c1)C1CCC1 [Compound 252, (R)—N-(1-cyclobutylethyl)-5-(4-(trifluoromethyl)phenyl)-2-naphthamide] here?
A: 100 to 1000 nM

Q: How did the IC50 turn out when C[C@H](NC(=O)c1ccc2c(-c3ccc(C(F)(F)F)cc3)cccc2c1)c1nccn1C [Compound 253, (S)—N-(1-(1-methyl-1H-imidazol-2-yl)ethyl)-5-(4-(trifluoromethyl)phenyl)-2-naphthamide] was run?
A: 1000 to 3000 nM

Q: For C[C@@H](NC(=O)c1ccc2c(-c3ccc(C(F)(F)F)cc3)cccc2c1)c1nccn1C [Compound 254, (R)—N-(1-(1-methyl-1H-imidazol-2-yl)ethyl)-5-(4-(trifluoromethyl)phenyl)-2-naphthamide], which IC50 is on record?
A: 100 to 1000 nM

Q: With O=C(NCCCCO)c1ccc2c(-c3ccc(C(F)(F)F)cc3)cccc2c1 [Compound 255, N-(4-hydroxybutyl)-5-(4-(trifluoromethyl)phenyl)-2-naphthamide] as the molecule, how does the IC50 read?
A: 100 to 1000 nM

Q: [N-]=[N+]=NCCCNC(=O)c1ccc2c(-c3ccc(C(F)(F)F)cc3)cccc2c1 [Compound 256, N-(3-azidopropyl)-5-(4-(trifluoromethyl)phenyl)-2-naphthamide] was tested. Which IC50 did it give?
A: 100 to 1000 nM

Q: For O=C(NC1(CO)CC1)c1ccc2c(-c3ccc(C(F)(F)F)cc3)cccc2c1 [Compound 257, N-(1-(hydroxymethyl)cyclopropyl)-5-(4-(trifluoromethyl)phenyl)-2-naphthamide], which IC50 is on record?
A: < 100 nM

Q: How did the IC50 turn out when C[C@@H](NC(=O)c1ccc2c(-c3ccc(C(F)(F)F)cc3)cccc2c1)C(N)=O [Compound 258, (R)—N-(1-amino-1-oxopropan-2-yl)-5-(4-(trifluoromethyl)phenyl)-2-naphthamide] was run?
A: 100 to 1000 nM

Q: C[C@H](NC(=O)c1ccc2c(-c3ccc(C(F)(F)F)cc3)cccc2c1)C(N)=O [Compound 259, (S)—N-(1-amino-1-oxopropan-2-yl)-5-(4-(trifluoromethyl)phenyl)-2-naphthamide] was tested. Which IC50 did it give?
A: 100 to 1000 nM

Q: O=C(NC(CO)c1ccccn1)c1cnc2c(-c3ccc(C(F)(F)F)cc3)cccc2c1 (stereo not shown) [Compound 260, N-[2-hydroxy-1-(2-pyridyl)ethyl]-8-[4-(trifluoromethyl)phenyl]quinoline-3-carboxamide] was tested. Which IC50 did it give?
A: < 100 nM

Q: [N-]=[N+]=NCCNC(=O)c1ccc2c(-c3ccc(C(F)(F)F)cc3)cccc2c1 [Compound 261, N-(2-azidoethyl)-5-(4-(trifluoromethyl)phenyl)-2-naphthamide] was tested. Which IC50 did it give?
A: < 100 nM

Q: With CC(C)(NC(=O)c1ccc2c(-c3ccc(C(F)(F)F)cc3)cccc2c1)c1ccccn1 [Compound 262, N-(2-(pyridin-2-yl)propan-2-yl)-5-(4-(trifluoromethyl)phenyl)-2-naphthamide] as the molecule, how does the IC50 read?
A: 100 to 1000 nM

Q: How did the IC50 turn out when CC(C)(CO)NC(=O)c1ccc2c(-c3ccc(C(F)(F)F)cc3)cccc2c1 [Compound 263, N-(1-hydroxy-2-methylpropan-2-yl)-5-(4-(trifluoromethyl)phenyl)-2-naphthamide] was run?
A: 100 to 1000 nM

Q: CC(C)(C)NC(=O)c1ccc2c(-c3ccc(C(F)(F)F)cc3)cccc2c1 [Compound 264, N-(tert-butyl)-5-(4-(trifluoromethyl)phenyl)-2-naphthamide] was tested. Which IC50 did it give?
A: 100 to 1000 nM

Q: For O=C(NCCCCl)c1ccc2c(-c3ccc(C(F)(F)F)cc3)cccc2c1 [Compound 265, N-(3-chloropropyl)-5-(4-(trifluoromethyl)phenyl)-2-naphthamide], which IC50 is on record?
A: 100 to 1000 nM

Q: With C[C@H](NC(=O)c1cnc2c(-c3ccc(C(F)(F)F)cc3)cccc2n1)c1ccccn1 [Compound 266, (S)—N-(1-(pyridin-2-yl)ethyl)-5-(4-(trifluoromethyl)phenyl)quinoxaline-2-carboxamide] as the molecule, how does the IC50 read?
A: 100 to 1000 nM

Q: C[C@H](CO)NC(=O)c1cnc2c(-c3ccc(C(F)(F)F)cc3)cccc2n1 [Compound 267, (R)—N-(1-hydroxypropan-2-yl)-5-(4-(trifluoromethyl)phenyl)quinoxaline-2-carboxamide] was tested. Which IC50 did it give?
A: 100 to 1000 nM

Q: Which IC50 does the source give for CC(C)NC(=O)c1cnc2c(-c3ccc(C(F)(F)F)cc3)cccc2n1 [Compound 268, N-Isopropyl-5-(4-(trifluoromethyl)phenyl)quinoxaline-2-carboxamide] here?
A: 100 to 1000 nM

Q: With C[C@H](NC(=O)c1ccc2c(-c3ccc(C(F)(F)F)cc3)cccc2c1)C1COC1 [Compound 269, (S)—N-(1-(oxetan-3-yl)ethyl)-5-(4-(trifluoromethyl)phenyl)-2-naphthamide] as the molecule, how does the IC50 read?
A: < 100 nM

Q: Which IC50 does the source give for C[C@@H](NC(=O)c1ccc2c(-c3ccc(C(F)(F)F)cc3)cccc2c1)C1COC1 [Compound 270, (R)—N-(1-(oxetan-3-yl)ethyl)-5-(4-(trifluoromethyl)phenyl)-2-naphthamide] here?
A: 100 to 1000 nM

Q: With CC#C[C@H](C)NC(=O)c1ccc2c(-c3ccc(C(F)(F)F)cc3)cccc2c1 [Compound 272, (S)—N-(pent-3-yn-2-yl)-5-(4-(trifluoromethyl)phenyl)-2-naphthamide] as the molecule, how does the IC50 read?
A: < 100 nM

Q: For CC#C[C@@H](C)NC(=O)c1ccc2c(-c3ccc(C(F)(F)F)cc3)cccc2c1 [Compound 273, (R)—N-(pent-3-yn-2-yl)-5-(4-(trifluoromethyl)phenyl)-2-naphthamide], which IC50 is on record?
A: < 100 nM

Q: C#C[C@H](C)NC(=O)c1ccc2c(-c3ccc(C(F)(F)F)cc3)cccc2c1 [Compound 274, (S)—N-(but-3-yn-2-yl)-5-(4-(trifluoromethyl)phenyl)-2-naphthamide] was tested. Which IC50 did it give?
A: < 100 nM

Q: Which IC50 does the source give for C#C[C@@H](C)NC(=O)c1ccc2c(-c3ccc(C(F)(F)F)cc3)cccc2c1 [Compound 275, (R)—N-(but-3-yn-2-yl)-5-(4-(trifluoromethyl)phenyl)-2-naphthamide] here?
A: < 100 nM

Q: With C[C@H](NC(=O)c1ccc2c(-c3ccc(C(F)(F)F)cc3)cccc2c1)c1c[nH]cn1 [Compound 276, (S)—N-(1-(1H-imidazol-4-yl)ethyl)-5-(4-(trifluoromethyl)phenyl)-2-naphthamide] as the molecule, how does the IC50 read?
A: 100 to 1000 nM

Q: With C[C@@H](NC(=O)c1ccc2c(-c3ccc(C(F)(F)F)cc3)cccc2c1)c1c[nH]cn1 [Compound 277, (R)—N-(1-(1H-imidazol-4-yl)ethyl)-5-(4-(trifluoromethyl)phenyl)-2-naphthamide] as the molecule, how does the IC50 read?
A: 100 to 1000 nM

Q: C[C@H](NC(=O)c1ccc2c(-c3ccc(C(F)(F)F)cc3)cccc2c1)c1nnn(C)n1 [Compound 278, (S)—N-(1-(2-methyl-2H-tetrazol-5-yl)ethyl)-5-(4-(trifluoromethyl)phenyl)-2-naphthamide] was tested. Which IC50 did it give?
A: 100 to 1000 nM

Q: For C[C@@H](NC(=O)c1ccc2c(-c3ccc(C(F)(F)F)cc3)cccc2c1)c1nnn(C)n1 [Compound 279, (R)—N-(1-(2-methyl-2H-tetrazol-5-yl)ethyl)-5-(4-(trifluoromethyl)phenyl)-2-naphthamide], which IC50 is on record?
A: < 100 nM

Q: C[C@H](NC(=O)c1ccc2c(-c3ccc(C(F)(F)F)cc3)cccc2c1)c1nnnn1C [Compound 280, (S)—N-(1-(1-methyl-1H-tetrazol-5-yl)ethyl)-5-(4-(trifluoromethyl)phenyl)-2-naphthamide] was tested. Which IC50 did it give?
A: 1000 to 3000 nM

Q: C[C@@H](NC(=O)c1ccc2c(-c3ccc(C(F)(F)F)cc3)cccc2c1)c1nnnn1C [Compound 281, (R)—N-(1-(1-methyl-1H-tetrazol-5-yl)ethyl)-5-(4-(trifluoromethyl)phenyl)-2-naphthamide] was tested. Which IC50 did it give?
A: 100 to 1000 nM

Q: With C[C@H](NC(=O)c1ccc2c(-c3ccc(C(F)(F)F)cc3)cccc2c1)c1cnccn1 [Compound 282, (S)—N-(1-(pyrazin-2-yl)ethyl)-5-(4-(trifluoromethyl)phenyl)-2-naphthamide] as the molecule, how does the IC50 read?
A: 100 to 1000 nM

Q: Which IC50 does the source give for C[C@@H](NC(=O)c1ccc2c(-c3ccc(C(F)(F)F)cc3)cccc2c1)c1cnccn1 [Compound 283, (R)—N-(1-(pyrazin-2-yl)ethyl)-5-(4-(trifluoromethyl)phenyl)-2-naphthamide] here?
A: < 100 nM
